# “Also recorded” adds a separate entry of the source.
# How the values were obtained:
# [1] = molecular target: T1, yeast glyoxalase I (Saccharomyces cerevisiae, UniProt P50107); assay: Enzymatic activity of yeast glyoxalase I (formation of S-D-lactoyl-glutathione, 240 nm); format: biochemical; settings: increasing concentrations (0-30 mM in Example 5); FIG. 1-3; listed as EP
# T1 construct: purchased Sigma G-4252
# T1 sequence (P50107 1-326): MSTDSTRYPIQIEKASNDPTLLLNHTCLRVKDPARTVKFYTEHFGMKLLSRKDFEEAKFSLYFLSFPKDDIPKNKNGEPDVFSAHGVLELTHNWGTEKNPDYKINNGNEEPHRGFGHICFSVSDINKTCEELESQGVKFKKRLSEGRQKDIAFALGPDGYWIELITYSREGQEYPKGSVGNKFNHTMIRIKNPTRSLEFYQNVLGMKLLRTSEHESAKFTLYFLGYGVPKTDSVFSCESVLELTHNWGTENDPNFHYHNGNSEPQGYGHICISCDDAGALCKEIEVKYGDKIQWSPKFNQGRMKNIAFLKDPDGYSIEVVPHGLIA
# Experimental: Measuring glyoxalase I (E.C.4.4.1.5, lactoyl-glutathione lyase Sigma, G-4252) was performed according to the instructions of McLellan and Thornalley (1989). The principle is based on measuring the initial rate of formation of S-D-lactoyl-glutathione from methylglyoxal (Sigma, MO252, 40%) and reduced L-glutathione (Aldrich, G-4251, >99%). The formation of the product is observed using the extinction coefficient e=2.86 mM-1 cm-1 at 240 nm. The measurement was performed in 50 mM sodium phosphate buffer, pH 7.0. For that purpose 2 mM methylglyoxal and 2 mM reduced glutathione were incubated for 2 minutes at 30° C. for the formation of the hemithioacetal. Thereafter 20 μl of a 1 to 1000 dilution of the glyoxalase I (Sigma, G-4252) was added to 1 ml of the measuring reagent to start the reaction.
# Glyoxalase activity (IU) corresponds to the amount of enzyme forming 1 μmol of S-D-lactoyl-glutathione/min.
# Determination of glyoxalase I activity was performed according to the general protocol as described above. The influence of ethyl pyruvate on enzyme activity was investigated by addition of increasing concentrations of EP (Sigma; no. E4, 780-8; lot. S18972-513) to the measuring reagent.
# Determination of glyoxalase I activity was performed according to the general protocol as described above. The influence of compounds of the general formula (I), (II), and (III) on the activity of the enzyme was investigated by addition of increasing concentrations of these compounds to the preparation. The IC50-values were calculated from inhibition curves of each compound.
# Determination of glyoxalase I activity was performed according to the general protocol as described above. The influence of 2-oxopropanethioic acid S-ethyl ester on the activity of the enzyme was investigated by addition of increasing concentrations of SE to the preparation for the measurement.
# Determination of glyoxalase I activity was performed according to the general protocol as described above. The influence of effectors on the enzymatic activity was investigated by addition of increasing concentrations (0-30 mM) of EP (Sigma; no. E4, 780-8; lot. S18972-513) (triangle), BP (prepared according to the instructions of patent JP 11080089; 98%) (circle) and BL (Fluka, 69819; lot. 443090/1 21503090) (squares) to the measuring reagent (FIG. 3).
# [2] = test system: yeast glyoxalase II; assay: Enzymatic activity of yeast glyoxalase II (cell free extract, DTNB, 412 nm); format: biochemical, Saccharomyces cerevisiae; settings: 0-20 mM; FIG. 4
# Experimental: Protein concentration of the cell free extract was determined according to the Bradford method (Bradford, 1976).
# The activity of the glyoxalase II (Hydroxyacyl glutathione hydrolase, E.C. 3.1.2.6.) was determined according to the instructions of Martins et al. (1999) in 0.1 M MES buffer, pH 6.5, 1.5 mM S-D-lactoyl-glutathione (L7140, Sigma-Aldrich Chemistry GmbH) and 0.75 mM DTNB (Sigma, D8130). After addition of suitable amounts of cell extract and an incubation period of 15 min at 25° C. the formation of glutathione was measured at 412 nm (ε=13.6 mM^−1 cm^−1). The activity of the glyoxalase II (IU) correlates with the amount of enzyme hydrolysing 1 μmol of S-D-lactoyl-glutathion/min.
# The influence of ethyl pyruvate on the activity of the enzyme was investigated by adding increasing concentrations of EP (Sigma, No. E4, 780-8; Lot. S18972-513) (0-20 mM) to the measurement reagent.
smiles,measurement,setting,value
CCOC(=O)C(C)=O [Ethyl pyruvate],Influence on the enzymatic activity of yeast glyoxalase I,[1],inhibits the reaction of yeast glyoxalase I in a concentration dependent manner; also recorded: inhibit the activity of glyoxalase I in a concentration dependent manner
same,Influence on the enzymatic activity of yeast glyoxalase II,[2],inhibits the reaction of yeast glyoxalase II in a concentration dependent manner

# Reference: US20100204161A1, “Substances and Pharmaceutical Compositions for the Inhibition of Glyoxalases and Their Use Against Bacteria” (BIOMAC PRIVATINSTITUT FUR MEDIZINISHE UND ZAHMEDIZ …, priority 2005, published 2010)
